Measured values taken from patent US11446287B2, “Compounds and methods for EP300 or CBP modulation and indications therefor” (Opna Immuno-Oncology SA, priority 2019, dated 2022).

Each compound was assayed against T1, Recombinant human EP300 containing the bromodomain (EP300-BD (1040-1161)) (Homo sapiens, UniProt Q09472) (assay: EP300 Alphascreen binding assay).
T1 construct: Recombinant human EP300 bromodomain (EP300-BD (1040-1161)); made in house; host or cells: E. coli BL21-CodonPlus (DE3), modified pET vector
T1 sequence (Q09472 1040-1161): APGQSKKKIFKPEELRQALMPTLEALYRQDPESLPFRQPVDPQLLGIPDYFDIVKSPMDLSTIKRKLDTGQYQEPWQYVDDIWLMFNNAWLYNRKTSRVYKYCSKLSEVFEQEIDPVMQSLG
Method in brief: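 Displacement of a biotinylated acetyl-K56 histone H3 peptide from the N-His bromodomain construct (1040-1161) measured by AlphaScreen proximity, beads at 7.5 μg/ml final, read 60 min after addition. Protein, peptide and compound first incubated 1 h at room temperature, pH 7.5 HEPES buffer; IC50 by four-parameter logistic fit.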
In the case of Cc1noc(C)c1-c1cnc2c(c1)c(-c1nccc(C(=O)O)n1)cn2[C@@H](C)c1ccccn1 [P-0107, (S)-2-(5-(3,5-dimethylisoxazol-4-yl)-1-(1-(pyridin-2-yl)ethyl)-1H-pyrrolo[2,3-b]pyridin-3-yl)pyrimidine-4-carboxylic acid], the IC50 is reported as 1000 to 8000 nM.
CCOc1cc(C(=O)O)cc(OCC)c1-n1cc(-c2ccccc2)c2ncc(-c3c(C)noc3C)cc21 [P-0168, 4-(6-(3,5-dimethylisoxazol-4-yl)-3-phenyl-1H-pyrrolo[3,2-b]pyridin-1-yl)-3,5-diethoxybenzoic acid] gave an IC50 of 0.1 to 1000 nM.
For Cc1noc(C)c1-c1cnc2c(C(O)(C3CC3)C3CC3)cn(-c3ccc(C(=O)O)cc3OC(F)(F)F)c2c1 [P-0163, 4-(3-(dicyclopropyl(hydroxy)methyl)-6-(3,5-dimethylisoxazol-4-yl)-1H-pyrrolo[3,2-b]pyridin-1-yl)-3-(trifluoromethoxy)benzoic acid], the IC50 was 0.1 to 1000 nM.
Work on Cc1noc(C)c1-c1cnc2c(c1)c(-c1ccc(C(=O)O)cc1C(F)(F)F)cn2[C@@H](C)c1ccccn1 [P-0116, (S)-4-(5-(3,5-dimethylisoxazol-4-yl)-1-(1-(pyridin-2-yl)ethyl)-1H-pyrrolo[2,3-b]pyridin-3-yl)-3-(trifluoromethyl)benzoic acid] yielded an IC50 of 0.1 to 1000 nM.
Cc1noc(C)c1-c1cnc2c(-c3ccccc3Cl)cn(C(C)(c3ccccn3)c3ccccn3)c2c1 [P-0155, 4-(3-(2-chloropheny1)-1-(1,1-di(pyridin-2-yl)ethyl)-1H-pyrrolo[3,2-b]pyridin-6-yl)-3,5-dimethylisoxazole] was tested, and the IC50 was 0.1 to 1000 nM.
Compound Cc1noc(C)c1-c1cnc2c(CC3CCC3)cn(-c3ccc(C(=O)O)c4ccoc34)c2c1 [P-0110, 7-(3-(cyclobutylmethyl)-6-(3,5-dimethylisoxazol-4-yl)-1H-pyrrolo[3,2-b]pyridin-1-yl)benzofuran-4-carboxylic acid] has an IC50 of 0.1 to 1000 nM.
In the case of Cc1noc(C)c1-c1cnc2c(C(=O)C3CCC3)cn(-c3c(Cl)cc(C(=O)O)cc3Cl)c2c1 [P-0121, 3,5-dichloro-4-(3-(cyclobutanecarbonyl)-6-(3,5-dimethylisoxazol-4-yl)-1H-pyrrolo[3,2-b]pyridin-1-yl)benzoic acid], the IC50 is reported as 0.1 to 1000 nM.
Compound Cc1noc(C)c1-c1cnc2c(-c3cnn(C)c3)c(C(F)(F)F)n([C@@H](C)c3ccccn3)c2c1 [P-0160, (S)-3,5-dimethyl-4-(3-(1-methyl-1H-pyrazol-4-yl)-1-(1-(pyridin-2-yl)ethyl)-2-(trifluoromethyl)-1H-pyrrolo[3,2-b]pyridin-6-yl)isoxazole] has an IC50 of 0.1 to 1000 nM.
In the case of Cc1noc(C)c1-c1cnc2c(c1)c(-c1cccc(C(=O)O)c1)cn2CC1CC(F)(F)C1 [P-0101, 3-(1-((3,3-difluorocyclobutyl)methyl)-5-(3,5-dimethylisoxazol-4-yl)-1H-pyrrolo[2,3-b]pyridin-3-yl)benzoic acid], the IC50 is reported as 0.1 to 1000 nM.
Cc1noc(C)c1-c1cnc2c(c1)c(-c1ccc(C(=O)O)cc1OC(F)(F)F)cn2C(C1CC1)C1CC1 [P-0156, 4-(1-(dicyclopropylmethyl)-5-(3,5-dimethylisoxazol-4-yl)-1H-pyrrolo[2,3-b]pyridin-3-yl)-3-(trifluoromethoxy)benzoic acid] gave an IC50 of 0.1 to 1000 nM.
